The values that follow come from patent publication US20090076050A1, “SYNERGISTIC TUMOR-KILLING EFFECT OF RADIATION AND BERBERINE COMBINED TREATMENT IN LUNG CANCER” (CHUNG SHAN MEDICAL U., priority 2007, published 2009).

Holding throughout (assay type): cell-based, human
Assay [1] has as its system A549 cells. The assay can be described thus: apoptosis hallmarks: DAPI stain, DNA electrophoresis, immunoblotting of caspase-3 and PARP. Particulars: 24 h. How it is done:
(§1) The role of apoptosis in the sensitivity of A549 cells to IR induced by berberine was further clarified by DAPI stain. DNA extraction and electrophoresis on agarose gel were carried out as described previously (Solary E, et al. Therapie 2001; 56:511-18). After the indicated treatments, cells were fixed with 3 mL of 4% paraformaldehyde. To stain the cells, 500 μL of a 0.5 μg/mL chilled solution of DAPI (Invitrogen) stain was added and allowed to sit for 5 min. The cells were then rinsed with PBS solution and counted under a fluorescent microscope. For positive control of DNA fragmentation and DAPI stain, A549 cells were treated with 30 μM etoposide for 24 h. […] This contention was further confirmed by the lack of apoptotic DNA fragmentation and activation of caspase-3 and poly-(ADP-ribose) polymerases (PARP) as analyzed by DNA electrophoresis and immunoblotting (FIG. 3B, 3C). After the indicated treatment, the resultant supernatants were separated in 12%˜18% polyacrylamide gels. The blot was incubated with a polyclonal antibody against LC3 (gift from T. Yoshimori), PARP, caspase-3, bcl-2, beclin-1 and β-actin (Santa Cruz biotechnology, USA) for 2 h, and then with an appropriate peroxidase-conjugated secondary antibody (Sigma) for 1 h at 37° C.
In general terms: In western blotting, separated proteins are transferred to a membrane and probed.

In assay [2] the test system is LC3-II in A549 cells. Kind of assay: immunoblotting for LC3-I, LC3-II. Particulars: 24 h after IR combined with increasing concentrations of berberine. How it is done:
as §1, with “C. […] LC3 is localized in autophagosome membranes during amino acid starvation-induced autophagy (Mizushima N, et al. J Cell Biol 2001; 152:657-68.). […]” for “C.”

In assay [3] the test system is A549 cells. Kind of assay: clonogenic survival assay (linear-quadratic model). How it is done: Cells were cultured in phenol-red-free medium and irradiated with a […] (Varian, 21-EX). The radiation was delivered as a single dose ranging from 2 to 8 Gy in an appropriate field size at a dose rate of 400 cGy/min. A 3-cm polystyrene block was used under the petri dishes during each irradiation to allow homogeneous backscattering radiation. Control cells were removed from the incubator and placed for the same period of time under the IR source but without radiation treatment. In the combined treatment mortality tests, berberine was added 2 h prior to irradiation.
The enhancing effect of berberine on radio-sensitivity in NSCLC was performed by treating A549 with various concentrations of berberine alone or combined with different dose of IR at 37° C. for 24 h or 48 h followed by MTT assay for cell viability analysis. Thereafter, the medium was changed and incubated with 100 μl MTT (Sigma St Louis, Mo.)/well for 4 h, which was solubilized in isopropanol, and measured spectrophotometrically at 563 nm. […] To further ascertain the effect of berberine on the lethality of IR, clonogenic survival assay was performed to examine long term survival. IR or berberine-treated cells (1000 cells) were plated onto 10 cm tissue culture dish in five replicates. After 14 days, colonies were fixed with methanol, stained with 0.25% crystal violet, and counted if they were consisted of more than 50 cells. The fraction of colonies survived from the irradiation was normalized to that of the corresponding control. The curves were fitted to the data using linear-quadratic model. The data were depicted in FIG. 1C after normalization.
Statistical significances were analyzed by student t-test or one-way analysis of variance (ANOVA) with post-hock Dunnett's test. P-value≦0.05 was considered statistically significant (Sigma-Stat 2.0, San Rafael, Calif., USA). Survival fraction curve was analyzed by KaleigaGraph 4.0 then fitted to the data using linear-quadratic model. Combination index was analyzed by CalcuSyn.

Regarding `COc1ccc2cc3[n+](cc2c1OC)CCc1cc2c(cc1-3)OCO2` [berberine, Berberine], the “apoptotic DNA fragmentation and activation of caspase-3 and PARP” value in assay [1] (berberine with IR, DNA electrophoresis and immunoblotting (FIG. 3B, 3C)) is “lack”. Moreover, in assay [1] (co-treatment of berberine (>5.0 μM) with IR (6 Gy)), the “number of apoptotic cells (DAPI stain)” value is “increased only slightly”. In addition, in assay [2], the “expression of LC3-II” value was “increased dose-dependently”. In addition, the “decrease in the D0 value” in assay [3] (10 μM berberine vs IR alone) worked out at 4.2 fold. Further, the results for the “D0 (dose of radiation producing a 37% survival rate)” value in assay [3] (IR + 2.5 μM berberine), in assay [3] (IR + 5.0 μM berberine) and in assay [3] (IR + 10 μM berberine) were 4.01 Gy, 2.70 Gy and 1.24 Gy, respectively. Also, the values for the SF2 in assay [3] (IR + 2.5 μM berberine), in assay [3] (IR + 5.0 μM berberine) and in assay [3] (IR + 10 μM berberine) were 0.3184, 0.2152 and 0.0991, respectively.
